Measurements reported in article PMC4844368 (The Biochemical journal, 2015).
Where a chain is given by its changes, count along the chain named. One block for each molecule: values may come before it.

Experiments:
CASK = biological target: T1, CASK (Homo sapiens, UniProt O14936); assay: Sypro Orange thermal shift; assay type: binding; settings: ATP dose series, 2 mM EDTA, TRB buffer pH 9.0
T1 sequence (O14936 1-337): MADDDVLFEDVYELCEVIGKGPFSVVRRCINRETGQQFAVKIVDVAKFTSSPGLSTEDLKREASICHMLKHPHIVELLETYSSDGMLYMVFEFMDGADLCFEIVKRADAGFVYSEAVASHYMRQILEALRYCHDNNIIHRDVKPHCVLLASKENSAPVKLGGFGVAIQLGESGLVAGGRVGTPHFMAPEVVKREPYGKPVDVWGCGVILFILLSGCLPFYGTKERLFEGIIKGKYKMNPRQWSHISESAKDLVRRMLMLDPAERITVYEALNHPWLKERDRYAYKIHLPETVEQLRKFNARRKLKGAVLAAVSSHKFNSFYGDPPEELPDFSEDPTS

TRB2 [1] = biological target: T2, TRB2 (Homo sapiens, UniProt Q92519, K90M); assay: intrinsic fluorescence thermal shift; assay type: binding; settings: 1 mM ATP, 2 mM EDTA, TRB buffer pH 9.0
T2 sequence (Q92519 1-343 K90M): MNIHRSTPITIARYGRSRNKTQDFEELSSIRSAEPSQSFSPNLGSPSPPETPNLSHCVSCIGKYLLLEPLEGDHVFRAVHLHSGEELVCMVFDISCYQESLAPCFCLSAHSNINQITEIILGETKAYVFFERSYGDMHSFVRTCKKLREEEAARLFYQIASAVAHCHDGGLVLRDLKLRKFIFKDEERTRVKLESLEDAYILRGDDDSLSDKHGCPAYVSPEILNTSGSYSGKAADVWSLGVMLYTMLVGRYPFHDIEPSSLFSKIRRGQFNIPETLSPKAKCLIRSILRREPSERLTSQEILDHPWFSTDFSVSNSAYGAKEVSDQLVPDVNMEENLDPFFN

TRB2 [2] = biological target: T3, TRB2 (Homo sapiens, UniProt Q92519); assay: intrinsic fluorescence thermal shift; assay type: binding; settings: 1 mM ATP, 2 mM EDTA, TRB buffer pH 9.0
T3 sequence (Q92519 1-343): T2 sequence (Q92519 1-343 K90M) with M90K

TRB2 [3] = biological target: T4, TRB2 (Homo sapiens, UniProt Q92519, K90A); assay: intrinsic fluorescence thermal shift; assay type: binding; settings: 1 mM ATP, 2 mM EDTA, TRB buffer pH 9.0
T4 sequence (Q92519 1-343 K90A): T2 sequence (Q92519 1-343 K90M) with M90A

Aurora A = biological target: T5, Aurora A (Homo sapiens, UniProt O14965); assay: intrinsic fluorescence thermal shift; assay type: binding; settings: 1 mM ATP, 10 mM Mg2+, no EDTA, TRB buffer pH 9.0
T5 sequence (O14965 1-403): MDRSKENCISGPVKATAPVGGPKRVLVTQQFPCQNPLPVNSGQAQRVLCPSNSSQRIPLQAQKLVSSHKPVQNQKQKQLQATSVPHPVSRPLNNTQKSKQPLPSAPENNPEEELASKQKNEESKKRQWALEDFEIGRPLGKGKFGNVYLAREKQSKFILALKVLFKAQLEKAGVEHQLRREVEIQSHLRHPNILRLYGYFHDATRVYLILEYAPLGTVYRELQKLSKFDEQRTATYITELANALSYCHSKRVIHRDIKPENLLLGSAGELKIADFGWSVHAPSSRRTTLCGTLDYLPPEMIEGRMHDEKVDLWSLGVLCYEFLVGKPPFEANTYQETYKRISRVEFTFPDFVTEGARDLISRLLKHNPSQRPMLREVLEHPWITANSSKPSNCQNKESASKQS

purified protein = substrate: Nc1ncnc2c1ncn2[C@@H]1O[C@H](COP(=O)(O)OP(=O)(O)OP(=O)(O)O)[C@@H](O)[C@H]1O; assay: purified protein; assay type: biochemical, Homo sapiens; settings: co-substrate histone H3; Mg2+-ATP

ΔTm (TRB2 [1]): 1.59 °C
ΔTm (TRB2 [2]): 3.64 °C
ΔTm (TRB2 [3]): 0.23 °C
ΔTm (Aurora A): 2.99 °C
Molecule: Nc1ncnc2c1ncn2[C@@H]1O[C@H](COP(=O)(O)OP(=O)(O)OP(=O)(O)O)[C@@H](O)[C@H]1O [ATP]
ΔTm (CASK): both CASK and TRB2 exhibited demonstrable dose-dependent binding to ATP

B1: Aurora A (Homo sapiens) (protein)
chain: T5 sequence (O14965 1-403)
Km (purified protein): 14.3 ± 2.6 µM
